Results as given in ChEMBL document CHEMBL5291721, “A preclinical secondary pharmacology resource illuminates target-adverse drug reaction associations of marketed drugs” (Nat Commun, 2023).

Experiments:
[1] = molecular target: T1, Alpha-2C adrenergic receptor (Homo sapiens, UniProt P18825); assay type: functional
T1 sequence (P18825 whole entry): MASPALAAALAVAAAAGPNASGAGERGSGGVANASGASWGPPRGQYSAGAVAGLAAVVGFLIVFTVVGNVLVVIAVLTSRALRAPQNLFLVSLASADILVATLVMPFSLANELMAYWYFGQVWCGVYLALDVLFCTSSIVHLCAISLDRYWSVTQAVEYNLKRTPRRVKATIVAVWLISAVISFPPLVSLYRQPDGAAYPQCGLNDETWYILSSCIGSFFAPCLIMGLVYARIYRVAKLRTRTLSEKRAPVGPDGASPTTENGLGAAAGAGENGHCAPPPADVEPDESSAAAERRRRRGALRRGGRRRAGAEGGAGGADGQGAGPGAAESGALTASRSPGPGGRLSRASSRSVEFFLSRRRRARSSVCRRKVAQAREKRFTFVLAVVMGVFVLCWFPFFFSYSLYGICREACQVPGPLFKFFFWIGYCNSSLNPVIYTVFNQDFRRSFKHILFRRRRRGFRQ

[2] = molecular target: Vasopressin V1a receptor (Homo sapiens, UniProt P37288)
[3] = molecular target: Muscarinic acetylcholine receptor M3 (Homo sapiens, UniProt P20309)
[4] = molecular target: Glutamate receptor ionotropic, NMDA 1 (Rattus norvegicus, UniProt P35439)
[5] = molecular target: T2, Adenosine receptor A3 (Homo sapiens, UniProt P0DMS8)
T2 sequence (P0DMS8 whole entry): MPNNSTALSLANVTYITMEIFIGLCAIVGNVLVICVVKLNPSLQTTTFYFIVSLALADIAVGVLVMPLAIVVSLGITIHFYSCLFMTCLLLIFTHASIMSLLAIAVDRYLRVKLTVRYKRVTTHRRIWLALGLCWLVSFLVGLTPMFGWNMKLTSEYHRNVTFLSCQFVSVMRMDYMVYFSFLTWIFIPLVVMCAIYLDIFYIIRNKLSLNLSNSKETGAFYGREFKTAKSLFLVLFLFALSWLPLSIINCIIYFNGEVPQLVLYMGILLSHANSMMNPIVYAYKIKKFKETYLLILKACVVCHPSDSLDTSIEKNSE

[6] = molecular target: T3, 5-hydroxytryptamine receptor 2C (Homo sapiens, UniProt P28335)
T3 sequence (P28335 whole entry): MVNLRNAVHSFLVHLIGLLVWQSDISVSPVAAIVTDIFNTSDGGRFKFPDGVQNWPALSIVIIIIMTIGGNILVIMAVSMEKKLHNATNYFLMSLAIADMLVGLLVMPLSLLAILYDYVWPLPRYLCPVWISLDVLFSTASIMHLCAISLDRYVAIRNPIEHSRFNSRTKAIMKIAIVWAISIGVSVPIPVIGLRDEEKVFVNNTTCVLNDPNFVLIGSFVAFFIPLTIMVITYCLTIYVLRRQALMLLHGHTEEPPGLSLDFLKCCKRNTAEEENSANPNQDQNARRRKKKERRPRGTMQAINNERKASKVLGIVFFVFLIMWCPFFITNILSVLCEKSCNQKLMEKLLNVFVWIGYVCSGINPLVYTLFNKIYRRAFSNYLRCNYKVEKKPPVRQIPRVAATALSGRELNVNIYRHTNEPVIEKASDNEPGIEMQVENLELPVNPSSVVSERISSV

[7] = molecular target: T4, B2 bradykinin receptor (Homo sapiens, UniProt P30411)
T4 sequence (P30411 whole entry): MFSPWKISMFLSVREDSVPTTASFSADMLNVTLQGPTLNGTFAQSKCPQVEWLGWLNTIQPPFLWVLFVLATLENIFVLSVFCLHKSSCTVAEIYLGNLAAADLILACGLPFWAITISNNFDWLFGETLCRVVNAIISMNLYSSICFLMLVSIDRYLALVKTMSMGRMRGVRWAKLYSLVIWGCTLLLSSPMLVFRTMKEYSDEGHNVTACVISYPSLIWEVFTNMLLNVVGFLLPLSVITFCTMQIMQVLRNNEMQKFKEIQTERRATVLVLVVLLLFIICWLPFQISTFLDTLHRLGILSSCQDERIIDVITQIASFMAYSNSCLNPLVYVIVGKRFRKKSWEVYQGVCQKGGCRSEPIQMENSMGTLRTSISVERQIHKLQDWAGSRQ

[8] = molecular target: cGMP-inhibited 3',5'-cyclic phosphodiesterase 3A (Homo sapiens, UniProt Q14432); assay type: functional
[9] = molecular target: Histamine H2 receptor (Homo sapiens, UniProt P25021); assay type: functional, cell-based
[10] = molecular target: T5, Alpha-1A adrenergic receptor (Homo sapiens, UniProt P35348); assay type: functional, cell-based
T5 sequence (P35348 whole entry): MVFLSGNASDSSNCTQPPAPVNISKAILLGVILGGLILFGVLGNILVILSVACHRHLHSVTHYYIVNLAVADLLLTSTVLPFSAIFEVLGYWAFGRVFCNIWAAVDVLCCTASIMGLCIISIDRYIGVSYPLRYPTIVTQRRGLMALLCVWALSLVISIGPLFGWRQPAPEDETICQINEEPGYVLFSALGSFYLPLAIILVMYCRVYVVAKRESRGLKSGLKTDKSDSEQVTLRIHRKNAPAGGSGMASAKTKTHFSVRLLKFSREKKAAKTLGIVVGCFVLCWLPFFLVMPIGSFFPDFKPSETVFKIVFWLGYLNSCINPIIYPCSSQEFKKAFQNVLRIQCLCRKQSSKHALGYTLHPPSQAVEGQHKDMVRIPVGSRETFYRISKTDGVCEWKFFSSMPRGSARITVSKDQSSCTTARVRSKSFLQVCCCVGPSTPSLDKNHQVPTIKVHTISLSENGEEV
Also: assay procedure not described here.

Chain of Vasopressin V1a receptor (P37288 whole entry): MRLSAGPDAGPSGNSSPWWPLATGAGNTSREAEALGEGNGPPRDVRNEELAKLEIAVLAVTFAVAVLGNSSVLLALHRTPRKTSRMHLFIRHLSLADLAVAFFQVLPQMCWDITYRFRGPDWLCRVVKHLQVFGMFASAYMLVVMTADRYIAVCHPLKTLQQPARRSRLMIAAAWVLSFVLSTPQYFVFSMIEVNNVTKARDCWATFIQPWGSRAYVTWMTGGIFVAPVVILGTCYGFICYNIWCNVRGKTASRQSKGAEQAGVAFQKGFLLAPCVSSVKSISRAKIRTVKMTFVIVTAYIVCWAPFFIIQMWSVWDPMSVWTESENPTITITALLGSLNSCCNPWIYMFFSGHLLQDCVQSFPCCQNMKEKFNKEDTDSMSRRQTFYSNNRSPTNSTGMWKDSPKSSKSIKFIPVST
Chain of Muscarinic acetylcholine receptor M3 (P20309 whole entry): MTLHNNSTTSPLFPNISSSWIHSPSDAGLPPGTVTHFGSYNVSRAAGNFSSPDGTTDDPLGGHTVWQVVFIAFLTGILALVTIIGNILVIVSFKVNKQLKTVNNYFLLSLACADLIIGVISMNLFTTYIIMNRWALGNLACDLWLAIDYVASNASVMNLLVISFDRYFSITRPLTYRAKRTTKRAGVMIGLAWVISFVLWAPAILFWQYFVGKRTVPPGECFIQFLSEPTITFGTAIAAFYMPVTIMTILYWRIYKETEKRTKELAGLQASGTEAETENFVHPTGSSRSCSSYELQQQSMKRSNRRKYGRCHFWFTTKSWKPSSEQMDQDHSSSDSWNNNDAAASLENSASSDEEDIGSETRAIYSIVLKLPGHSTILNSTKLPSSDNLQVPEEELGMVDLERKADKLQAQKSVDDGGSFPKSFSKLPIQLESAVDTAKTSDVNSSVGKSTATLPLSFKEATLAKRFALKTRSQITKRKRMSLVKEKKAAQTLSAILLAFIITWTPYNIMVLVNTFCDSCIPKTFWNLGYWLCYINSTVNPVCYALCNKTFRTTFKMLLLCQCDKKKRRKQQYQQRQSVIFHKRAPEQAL
Chain of Histamine H2 receptor (P25021 whole entry): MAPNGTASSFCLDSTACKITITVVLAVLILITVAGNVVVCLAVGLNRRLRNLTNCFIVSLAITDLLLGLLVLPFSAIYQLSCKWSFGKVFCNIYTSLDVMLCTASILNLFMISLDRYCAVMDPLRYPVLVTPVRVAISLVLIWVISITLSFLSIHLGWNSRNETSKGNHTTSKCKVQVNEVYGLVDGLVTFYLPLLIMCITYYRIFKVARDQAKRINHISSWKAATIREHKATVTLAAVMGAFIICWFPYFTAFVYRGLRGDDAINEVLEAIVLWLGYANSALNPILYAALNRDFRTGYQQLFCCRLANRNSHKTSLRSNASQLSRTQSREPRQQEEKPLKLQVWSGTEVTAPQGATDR
Chain of cGMP-inhibited 3',5'-cyclic phosphodiesterase 3A (Q14432 whole entry): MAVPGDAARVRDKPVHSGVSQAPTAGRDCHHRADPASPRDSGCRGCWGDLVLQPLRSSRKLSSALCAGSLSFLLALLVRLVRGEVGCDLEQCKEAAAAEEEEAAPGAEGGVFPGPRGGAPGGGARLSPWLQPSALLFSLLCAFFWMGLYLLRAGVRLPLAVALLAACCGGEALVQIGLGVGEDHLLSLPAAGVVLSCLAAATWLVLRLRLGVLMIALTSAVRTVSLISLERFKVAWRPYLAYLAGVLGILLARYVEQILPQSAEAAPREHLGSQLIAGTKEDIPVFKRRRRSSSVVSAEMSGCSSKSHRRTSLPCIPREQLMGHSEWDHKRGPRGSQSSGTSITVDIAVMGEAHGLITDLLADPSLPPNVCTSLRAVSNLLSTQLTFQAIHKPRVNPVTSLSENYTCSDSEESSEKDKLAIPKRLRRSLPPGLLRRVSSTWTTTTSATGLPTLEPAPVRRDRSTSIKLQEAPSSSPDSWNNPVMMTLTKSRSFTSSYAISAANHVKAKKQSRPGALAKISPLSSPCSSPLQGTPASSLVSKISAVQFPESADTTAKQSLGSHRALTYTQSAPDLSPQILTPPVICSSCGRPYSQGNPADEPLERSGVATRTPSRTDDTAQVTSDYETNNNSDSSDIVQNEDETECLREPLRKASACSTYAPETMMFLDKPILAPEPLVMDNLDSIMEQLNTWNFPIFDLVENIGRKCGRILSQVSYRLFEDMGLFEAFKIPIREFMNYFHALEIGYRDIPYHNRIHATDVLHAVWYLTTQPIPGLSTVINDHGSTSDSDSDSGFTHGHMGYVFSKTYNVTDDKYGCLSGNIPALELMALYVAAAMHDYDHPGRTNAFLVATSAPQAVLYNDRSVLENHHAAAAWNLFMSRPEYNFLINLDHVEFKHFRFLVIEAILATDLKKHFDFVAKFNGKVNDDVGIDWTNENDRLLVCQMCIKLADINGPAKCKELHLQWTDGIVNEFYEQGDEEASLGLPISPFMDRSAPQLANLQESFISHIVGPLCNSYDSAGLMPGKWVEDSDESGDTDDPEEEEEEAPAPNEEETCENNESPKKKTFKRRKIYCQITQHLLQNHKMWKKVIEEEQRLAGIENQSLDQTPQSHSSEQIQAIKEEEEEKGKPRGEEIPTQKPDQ

Row | SMILES | AC50 [1] [µM] | AC50 [2] [µM] | AC50 [3] [µM] | AC50 [4] [µM] | AC50 [5] [µM] | AC50 [6] [µM] | AC50 [7] [µM] | AC50 [8] [µM] | AC50 [9] [µM] | AC50 [10] [µM]
1 | CCOC(=O)O[C@]1(C(=O)COC(=O)CC)CC[C@H]2[C@@H]3CCC4=CC(=O)C=C[C@]4(C)[C@H]3[C@@H](O)C[C@@]21C [PREDNICARBATE] | > 10 | > 10 | > 30 | > 10 | > 10 | > 30 | > 10 | > 30 | > 10 | –
2 | Nc1ccc(S(=O)(=O)Nc2ncccn2)cc1 [SULFADIAZINE] | > 10 | – | – | > 10 | > 10 | > 30 | > 10 | > 30 | > 10 | –
3 | CC(=O)[C@@]1(O)CC[C@H]2[C@@H]3C[C@H](C)C4=CC(=O)C=C[C@]4(C)[C@@]3(F)[C@@H](O)C[C@@]21C [FLUOROMETHOLONE] | > 10 | – | – | > 10 | > 10 | > 30 | > 10 | > 30 | > 10 | > 30
4 | CC(C)(C)NCC(O)COc1cccc2c1CC(O)C(O)C2 (stereo not drawn) [NADOLOL] | > 10 | – | – | > 10 | > 10 | > 30 | > 10 | > 30 | > 10 | 7.7
5 | OCCN(CCO)c1nc(N2CCCCC2)c2nc(N(CCO)CCO)nc(N3CCCCC3)c2n1 [DIPYRIDAMOLE] | > 30 | – | – | > 30 | 24.7 | > 30 | > 30 | > 30 | > 30 | > 30
6 | N=C(N)NC(=O)Cc1c(Cl)cccc1Cl [GUANFACINE] | – | > 30 | – | > 30 | > 30 | 10 | > 30 | > 30 | > 30 | –
7 | COC(=O)[C@H]1[C@H]2C[C@@H]3c4[nH]c5ccccc5c4CCN3C[C@H]2C[C@@H](OC(=O)c2cc(OC)c(OC)c(OC)c2)[C@@H]1OC [DESERPIDINE] | 12 | > 30 | > 30 | > 10 | 15.8 | > 30 | > 30 | > 30 | > 10 | –
8 | Cc1cccc(Nc2ccncc2S(=O)(=O)NC(=O)NC(C)C)c1 [TORSEMIDE] | > 10 | > 30 | – | > 10 | > 30 | > 30 | > 30 | > 30 | > 10 | –
9 | CCC(=O)[C@@]1(C)[C@H](C)C[C@H]2[C@@H]3CCC4=CC(=O)C=C[C@]4(C)[C@H]3[C@@H](O)C[C@@]21C [RIMEXOLONE] | > 10 | > 10 | > 30 | > 10 | > 10 | > 30 | > 10 | > 30 | > 10 | –
10 | Nc1cc(N2CCCCC2)nc(N)[n+]1[O-] [MINOXIDIL] | > 10 | – | – | > 10 | > 30 | > 30 | > 30 | > 30 | > 30 | > 30
11 | CN1CCC(=C2c3ccccc3CC(=O)c3sccc32)CC1 [KETOTIFEN] | 6.45 | > 10 | – | > 10 | > 10 | 2.3 | > 10 | > 30 | > 10 | 15
12 | CCC1(C)CC(=O)NC1=O (stereo not drawn) [ETHOSUXIMIDE] | > 10 | – | – | > 10 | > 10 | > 30 | > 10 | > 30 | > 30 | –
13 | CC(C)CN(C[C@@H](O)[C@H](Cc1ccccc1)NC(=O)O[C@H]1CCOC1)S(=O)(=O)c1ccc(N)cc1 | > 10 | > 30 | – | > 10 | > 30 | > 30 | > 30 | > 30 | > 10 | 12
14 | CC1CC(OC(=O)C(O)c2ccccc2)CC(C)(C)C1 (stereo not drawn) [CYCLANDELATE] | > 10 | – | – | > 10 | > 10 | > 30 | > 10 | > 30 | > 10 | –
15 | CCC1(CC)C(=O)NC(=O)N(C)C1=O [METHARBITAL] | > 10 | > 10 | > 30 | > 10 | > 10 | > 30 | > 10 | > 30 | > 10 | –
16 | CC1Cc2ccccc2N1NC(=O)c1ccc(Cl)c(S(N)(=O)=O)c1 (stereo not drawn) [INDAPAMIDE] | > 10 | – | – | > 10 | > 30 | > 30 | > 30 | > 10 | > 10 | > 30
17 | OCC(O)COc1ccc(Cl)cc1 (stereo not drawn) | > 10 | > 10 | > 30 | > 10 | > 10 | > 30 | > 10 | > 30 | > 10 | –
18 | CN(Cc1ccc(C(C)(C)C)cc1)Cc1cccc2ccccc12 [BUTENAFINE] | > 10 | – | – | > 10 | > 10 | > 30 | > 10 | > 30 | > 10 | –
19 | CC(=O)OCC1=C(C(=O)O)N2C(=O)[C@@H](NC(=O)CSc3ccncc3)[C@H]2SC1 [CEPHAPIRIN] | > 10 | > 10 | > 30 | > 10 | > 10 | > 30 | > 10 | > 30 | > 10 | –
20 | CC(=O)N1CCN(c2ccc(OCC3COC(Cn4ccnc4)(c4ccc(Cl)cc4Cl)O3)cc2)CC1 (stereo not drawn) [KETOCONAZOLE] | > 10 | > 10 | – | > 10 | 17.7 | > 30 | > 10 | > 30 | > 10 | –
21 | O=C(O)CCCC[C@@H]1SC[C@@H]2NC(=O)N[C@@H]21 [BIOTIN] | > 10 | – | > 30 | – | > 10 | > 30 | > 10 | > 30 | > 10 | –
22 | CCN(C(C)=O)c1cccc(-c2ccnc3c(C#N)cnn23)c1 [ZALEPLON] | > 10 | – | – | > 10 | > 30 | > 30 | > 30 | 10 | > 10 | > 30
